Assay results published in patent US10544106B2, “Certain chemical entities, compositions, and methods” (NeuPharma, Inc., priority 2016, dated 2020).

Biological target: BTK (Homo sapiens (Human), UniProt Q06187)
Assay: Z'-LYTE kinase inhibition assay against BTK
Type: biochemical
Conditions: for inhibition at 0.1 µM: compound at 100 nM, ATP concentration at Km; for IC50: series of concentrations, GraphPad Prism 5
In short: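 Compounds were titrated over 10 points (3-fold steps, 1% DMSO) against BTK (1.04-10.4 ng) using Tyr 01 substrate at 2 μM and ATP at Km, pH 7.5 HEPES buffer with MgCl2 and EGTA. After one hour each of reaction and development at room temperature, fluorescence gave percent inhibition and IC50.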

Sequence of BTK (Q06187 whole entry): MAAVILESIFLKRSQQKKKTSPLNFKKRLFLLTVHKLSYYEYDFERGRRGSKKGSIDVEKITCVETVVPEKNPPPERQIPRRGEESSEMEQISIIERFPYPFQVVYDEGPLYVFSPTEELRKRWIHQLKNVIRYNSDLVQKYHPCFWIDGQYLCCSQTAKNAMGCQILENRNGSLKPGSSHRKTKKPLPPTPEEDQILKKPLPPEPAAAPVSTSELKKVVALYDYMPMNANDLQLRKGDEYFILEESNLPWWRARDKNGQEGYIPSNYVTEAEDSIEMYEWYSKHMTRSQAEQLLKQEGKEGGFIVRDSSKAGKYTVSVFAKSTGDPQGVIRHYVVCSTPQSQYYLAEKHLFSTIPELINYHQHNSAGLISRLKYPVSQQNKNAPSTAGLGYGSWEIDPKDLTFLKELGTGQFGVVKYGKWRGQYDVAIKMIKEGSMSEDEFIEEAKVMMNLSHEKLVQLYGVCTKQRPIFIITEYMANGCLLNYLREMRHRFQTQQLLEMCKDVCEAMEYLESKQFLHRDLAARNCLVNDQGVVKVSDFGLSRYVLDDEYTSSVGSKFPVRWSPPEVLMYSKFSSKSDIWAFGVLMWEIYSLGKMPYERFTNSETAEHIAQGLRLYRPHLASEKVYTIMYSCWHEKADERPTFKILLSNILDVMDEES

SMILES | inhibition at 0.1 µM | IC50
C=CC(=O)N1CCC(c2cc(-c3ccc(Oc4cccc(F)c4)nc3)cc3cncnc23)C1 (stereo not drawn) [C095, 1-(3-(6-(6-(3-fluorophenoxy)pyridin-3-yl)quinazolin-8-yl)pyrrolidin-1-yl)prop-2-en-1-one] | < 50% | 
C=CC(=O)Nc1cccc(-c2cc(-c3ccc(Oc4ccccc4F)nc3)cc3cncnc23)c1 [C096, N-(3-(6-(6-(2-fluorophenoxy)pyridin-3-yl)quinazolin-8-yl)phenyl)acrylamide] | > 50% | 
C=CC(=O)N1CCC(c2cc(-c3ccc(C(=O)Nc4cccc(F)c4)nc3)cc3cncnc23)C1 (stereo not drawn) [C097, 5-(8-(1-acryloylpyrrolidin-3-yl)quinazolin-6-yl)-N-(3-fluorophenyl)picolinamide] | < 50% | 
C=CC(=O)Nc1cccc(-c2cc(-c3ccc(Oc4cc(C(F)(F)F)ccn4)cc3)cc3cnc(N)nc23)c1 [C098, N-(3-(2-amino-6-(4-((4-(trifluoromethyl)pyridin-2-yl)oxy)phenyl)quinazolin-8-yl)phenyl)acrylamide] | < 50% | 
C=CC(=O)Nc1cccc(-c2cc(-c3ccc(C(=O)N4CCOCC4)cc3)cc3cncnc23)c1 [C101, N-(3-(6-(4-(morpholine-4-carbonyl)phenyl)quinazolin-8-yl)phenyl)acrylamide] | > 50% | 
C=CC(=O)Nc1cccc(-c2cc(-c3cncc(Cl)c3)cc3cnc(N)nc23)c1 [C103, N-(3-(2-amino-6-(5-chloropyridin-3-yl)quinazolin-8-yl)phenyl)acrylamide] | > 50% | < 100 nM
C=CC(=O)N1CCC(c2cc(-c3ccc(Oc4cc(C(F)(F)F)ccn4)cc3)cc3cnc(N)nc23)C1 (stereo not drawn) [C104, 1-(3-(2-amino-6-(4-((4-(trifluoromethyl)pyridin-2-yl)oxy)phenyl)quinazolin-8-yl)pyrrolidin-1-yl)prop-2-en-1-one] | < 50% | 
C=CC(=O)Nc1cccc(-c2cc(-c3ccc(Oc4ncccc4Cl)cc3F)cc3cncnc23)c1 [C106, N-(3-(6-(4-((3-chloropyridin-2-yl)oxy)-2-fluorophenyl)quinazolin-8-yl)phenyl)acrylamide] | > 50% | < 100 nM
C=CC(=O)N1CCC(c2cc(-c3ccc(Oc4ccccn4)cc3)cc3cncnc23)C1 (stereo not drawn) [C107, 1-(3-(6-(4-(pyridin-2-yloxy)phenyl)quinazolin-8-yl)pyrrolidin-1-yl)prop-2-en-1-one] | > 50% | 
C=CC(=O)N1CCC(c2cc(-c3ccc(Oc4ncccc4F)cc3F)cc3cncnc23)C1 (stereo not drawn) [C108, 1-(3-(6-(2-fluoro-4-((3-fluoropyridin-2-yl)oxy)phenyl)quinazolin-8-yl)pyrrolidin-1-yl)prop-2-en-1-one] | > 50% | 
C=CC(=O)Nc1cccc(-c2cc(-c3ccc(C(=O)Nc4cc(C#N)ccn4)cc3)cc3cncnc23)c1 [C109, 4-(8-(3-acrylamidophenyl)quinazolin-6-yl)-N-(4-cyanopyridin-2-yl)benzamide] | < 50% | 
C=CC(=O)Nc1cccc(-c2cc(-c3cncc(OC)c3)cc3cnc(N)nc23)c1 [C110, N-(3-(2-amino-6-(5-methoxypyridin-3-yl)quinazolin-8-yl)phenyl)acrylamide] | > 50% | 
C=CC(=O)Nc1cccc(-c2cc(-c3cncc(F)c3)cc3cnc(N)nc23)c1 [C111, N-(3-(2-amino-6-(5-fluoropyridin-3-yl)quinazolin-8-yl)phenyl)acrylamide] | > 50% | < 100 nM
C=CC(=O)Nc1cccc(-c2cc(-c3ccc(C(=O)Nc4cccnc4)cc3)cc3cncnc23)c1 [C113, 4-(8-(3-acrylamidophenyl)quinazolin-6-yl)-N-(pyridin-3-yl)benzamide] | < 50% | 
C=CC(=O)N1CCC(c2cc(-c3ccc(Oc4ccccn4)cc3F)cc3cncnc23)C1 (stereo not drawn) [C114, 1-(3-(6-(2-fluoro-4-(pyridin-2-yloxy)phenyl)quinazolin-8-yl)pyrrolidin-1-yl)prop-2-en-1-one] | > 50% | 
C=CC(=O)N1CCC(c2cc(-c3ccc(C(=O)Nc4cccnc4)cc3)cc3cncnc23)C1 (stereo not drawn) [C115, 4-(8-(1-acryloylpyrrolidin-3-yl)quinazolin-6-yl)-N-(pyridin-3-yl)benzamide] | < 50% | 
C=CC(=O)Nc1cccc(-c2cc(-c3ccc(C(=O)Nc4cc(C(F)(F)F)ccn4)cc3Cl)cc3cncnc23)c1 [C116, 4-(8-(3-acrylamidophenyl)quinazolin-6-yl)-3-chloro-N-(4-(trifluoromethyl)pyridin-2-yl)benzamide] | > 50% | < 100 nM
C=CC(=O)Nc1cccc(-c2cc(-c3ccc(Oc4cccnc4)cc3)cc3cncnc23)c1 [C117, N-(3-(6-(4-(pyridin-3-yloxy)phenyl)quinazolin-8-yl)phenyl)acrylamide] | > 50% | < 100 nM
C=CC(=O)Nc1cccc(-c2cc(-c3ccccn3)cc3cncnc23)c1 [C118, N-(3-(6-(pyridin-2-yl)quinazolin-8-yl)phenyl)acrylamide] | > 50% | 
C=CC(=O)Nc1cccc(-c2cc(-c3ccc(Oc4ccccn4)c(OC)c3)cc3cncnc23)c1 [C119, N-(3-(6-(3-methoxy-4-(pyridin-2-yloxy)phenyl)quinazolin-8-yl)phenyl)acrylamide] | > 50% | 
C=CC(=O)Nc1cccc(-c2cc(-c3ccc(C(=O)Nc4cc(C#N)ccn4)cc3Cl)cc3cncnc23)c1 [C122, 4-(8-(3-acrylamidophenyl)quinazolin-6-yl)-3-chloro-N-(4-cyanopyridin-2-yl)benzamide] | > 50% | < 100 nM
C=CC(=O)N1CCC(c2cc(-c3ccc(C(=O)Nc4cc(C5CC5)ccn4)cc3)cc3cncnc23)C1 (stereo not drawn) [C123, 4-(8-(1-acryloylpyrrolidin-3-yl)quinazolin-6-yl)-N-(4-cyclopropylpyridin-2-yl)benzamide] | > 50% | 
C=CC(=O)N1CCC(c2cc(-c3ccc(C(=O)Nc4cc(C#N)ccn4)cc3)cc3cncnc23)C1 (stereo not drawn) [C124, 4-(8-(1-acryloylpyrrolidin-3-yl)quinazolin-6-yl)-N-(4-cyanopyridin-2-yl)benzamide] | < 50% | 
C=CC(=O)N1CCC(c2cc(-c3ccc(C(=O)Nc4cc(C(F)(F)F)ccn4)cc3)cc3cncnc23)C1 (stereo not drawn) [C125, 4-(8-(1-acryloylpyrrolidin-3-yl)quinazolin-6-yl)-N-(4-(trifluoromethyl)pyridin-2-yl)benzamide] | > 50% | 
C=CC(=O)N1CCC(c2cc(-c3ccc(C(=O)Nc4ccccn4)cc3F)n3cnccc23)C1 (stereo not drawn) [C126, 4-(5-(1-acryloylpyrrolidin-3-yl)pyrrolo[1,2-c]pyrimidin-7-yl)-3-fluoro-N-(pyridin-2-yl)benzamide] | < 50% | 

Other lines, results leading:

inhibition at 0.1 µM | IC50 | SMILES
< 50% |  | C=CC(=O)Nc1cccc(-c2cc(-c3ccc(C(=O)Nc4cc(C(F)(F)F)ccn4)c(F)c3)cc3cncnc23)c1 [C127, 4-(8-(3-acrylamidophenyl)quinazolin-6-yl)-2-fluoro-N-(4-(trifluoromethyl)pyridin-2-yl)benzamide]
< 50% |  | C=CC(=O)N1CCC(c2cc(-c3ccc(C(=O)Nc4cc(C(N)=O)ccn4)cc3)cc3cncnc23)C1 (stereo not drawn) [C128, 2-(4-(8-(1-acryloylpyrrolidin-3-yl)quinazolin-6-yl)benzamido)isonicotinamide]
> 50% | < 100 nM | C=CC(=O)Nc1cccc(-c2cc(-c3ccc(C(=O)Nc4cc(C(F)(F)F)ccn4)cc3F)cc3cncnc23)c1 [C129, 4-(8-(3-acrylamidophenyl)quinazolin-6-yl)-3-fluoro-N-(4-(trifluoromethyl)pyridin-2-yl)benzamide]
< 50% |  | C=CC(=O)N1CCC(c2cc(-c3ccc(C(=O)Nc4cc(C(F)(F)F)ccn4)cc3F)n3cnccc23)C1 (stereo not drawn) [C130, 4-(5-(1-acryloylpyrrolidin-3-yl)pyrrolo[1,2-c]pyrimidin-7-yl)-3-fluoro-N-(4-(trifluoromethyl)pyridin-2-yl)benzamide]
> 50% | < 100 nM | C=CC(=O)Nc1cccc(-c2cc(-c3ccc(C(=O)Nc4ccccn4)c(F)c3)cc3cncnc23)c1 [C132, 4-(8-(3-acrylamidophenyl)quinazolin-6-yl)-2-fluoro-N-(pyridin-2-yl)benzamide]
< 50% |  | C=CC(=O)N1CCC(c2cc(-c3ccc(Oc4ccccn4)cc3OC)cc3cncnc23)C1 (stereo not drawn) [C133, 1-(3-(6-(2-methoxy-4-(pyridin-2-yloxy)phenyl)quinazolin-8-yl)pyrrolidin-1-yl)prop-2-en-1-one]
> 50% |  | C=CC(=O)Nc1cccc(-c2cc(-c3ccc(C(=O)Nc4cc(C(N)=O)ccn4)cc3Cl)cc3cncnc23)c1 [C134, 2-(4-(8-(3-acrylamidophenyl)quinazolin-6-yl)-3-chlorobenzamido)isonicotinamide]
> 50% |  | C=CC(=O)N1CCC(c2cc(-c3ccc(C(=O)Nc4cc(C(F)(F)F)ccn4)cc3)n3cnccc23)C1 (stereo not drawn) [C136, 4-(5-(1-acryloylpyrrolidin-3-yl)pyrrolo[1,2-c]pyrimidin-7-yl)-N-(4-(trifluoromethyl)pyridin-2-yl)benzamide]
> 50% | < 100 nM | C=CC(=O)Nc1cccc(-c2cc(-c3ccc(C(=O)Nc4cc(C(F)(F)F)ccn4)cc3)cc3cncnc23)c1 [C137, 4-(8-(3-acrylamidophenyl)quinazolin-6-yl)-N-(4-(trifluoromethyl)pyridin-2-yl)benzamide]
< 50% |  | C=CC(=O)Nc1cccc(-c2cc(-c3ccc(C(=O)Nc4cc(C(N)=O)ccn4)cc3)cc3cncnc23)c1 [C138, 2-(4-(8-(3-acrylamidophenyl)quinazolin-6-yl)benzamido)isonicotinamide]
< 50% |  | C=CC(=O)Nc1cccc(-c2cc(-c3ccc(C(=O)Nc4cc(C5CC5)ccn4)c(OC)c3)cc3cncnc23)c1 [C140, 4-(8-(3-acrylamidophenyl)quinazolin-6-yl)-N-(4-cyclopropylpyridin-2-yl)-2-methoxybenzamide]
